Blank lines part the entries; values can stand above or below the compound they belong to.
Key:
[1] = tested on: Human melanoma cells (HMVII); experiment: Melanin production inhibition test, HMVII cells; type: cell-based; conditions: control = 100
Description: Human melanoma cells (HMVII) were the third or higher passage cultured in a culture solution of a Ham F-12 culture medium (manufactured by Nissui Pharmaceutical Co., Ltd.) containing 10% FBS, mixed with 0.5% penicillin-streptomycin (manufactured by Gibco). The test samples were the freeze-dried products of the hot water extract obtained in Preparation 1 (1) and the fractions eluted with 10% and 50% aqueous ethanol solutions obtained in Preparation 1 (2). […] The culture medium was removed, washed with PBS, and then 100 μL of a trypsin EDTA solution was added thereby removing the cells from the plate, and 900 μL of 1N sodium hydroxide aqueous solution was added. The cells were allowed to stand at room temperature for 20 to 24 hours thereby causing cytolysis, and then the melanin content was measured at an absorbance of 475 nm.

[2] = tested on: tyrosinase; experiment: Tyrosinase activity inhibition test; type: biochemical; conditions: DOPA substrate, control = 100
Experimental: (§1) The test samples were the freeze-dried products of the hot water extract obtained in Preparation 1 (1) and the fractions eluted with 10% and 50% aqueous ethanol solutions obtained in Preparation 1 (2).
0.5 mL of substrate (DOPA) solution adjusted to the final concentration of 0.03% with a phosphoric acid buffer was mixed with 0.5 mL of test sample solution prepared using a phosphoric acid buffer, and cooled on ice. 0.5 mL of tyrosinase solution adjusted to the final concentration of 45 U/mL with a phosphoric acid buffer was added to the mixture, incubated at 25° C. for 5 minutes, and then the absorbance at 475 nm was measured. The reaction rate (activity) of tyrosinase was calculated from the difference of the absorbance. In order to eliminate the influence of the color of the test sample, the absorbance of a mixture containing a phosphoric acid buffer in place of the tyrosinase solution was measured, thereby correcting the absorbance.

[3] = tested on: Mouse melanoma cells B16F1; experiment: Melanin production inhibition test, B16F1 cells; type: cell-based; conditions: control = 100; for Melanin production rate: α-MSH 100 ng/mL, 72 hours
Experimental: Mouse melanoma cells B16F1 were the third or higher passage cultured in Dulbecco's Modified Eagle Medium (D-MEM) containing 10% FBS (manufactured by Nissui Pharmaceutical Co., Ltd.) mixed with 0.5% penicillin-streptomycin (manufactured by Gibco).
as §1
(a) Amount of Melanin Production • 960 μL of mouse cells B16F1 cultured in D-MEM culture medium containing 10% FBS was seeded on a 24-well plate to give a final concentration of 1.0×10^5 cells/well (seeding concentration: 1.04×10^5 cells/mL), and cultured for 24 hours in a CO^2 incubator. 20 μL of melanin production hormone (α-MSH) adjusted to a final concentration of 100 ng/mL (addition concentration: 5.0 μg/mL) and 20 μL of test sample adjusted to 10 μg/mL (500 μg/mL) or 100 μg/mL (5000 μg/mL) were added, and cultured for 72 hours. The culture medium was removed, washed with PBS, and then 100 μL of a trypsin EDTA solution was added thereby removing the cells from the plate, and 900 μL of 1N sodium hydroxide aqueous solution was added. The cells were allowed to stand at room temperature for 20 to 24 hours thereby causing cytolysis, and then the melanin content was measured at an absorbance of 475 nm.

Compound: O=C1O[C@H]([C@@H](O)CO)C(O)=C1O [Ascorbic acid]
Melanin production rate after correction of survival rate ([1]; 10 μg/mL): 102.74%
Melanin production rate after correction of survival rate ([1]; 100 μg/mL): 95.60%
Melanin production rate ([1]; 100 μg/mL, α-MSH 100 ng/mL, 72 hours): 94.76%

Reaction rate of tyrosinase ([2]; 10 μg/mL): 42.35%
Reaction rate of tyrosinase ([2]; 100 μg/mL): 8.71%
Compound: O=c1cc(CO)occ1O [Kojic acid]

Compound: OC[C@H]1O[C@@H](Oc2ccc(O)cc2)[C@H](O)[C@@H](O)[C@@H]1O [β arbutin]
Melanin production rate after correction of survival rate ([3]; 10 μg/mL): 83.48%
Melanin production rate ([3]; 10 μg/mL): 95.41%
Melanin production rate after correction of survival rate ([3]; 100 μg/mL): 82.52%
Melanin production rate ([3]; 100 μg/mL): 93.76%

Source: patent publication US8673376B2, “Polyphenol-containing composition for oral administration or external use and use of same” (Biotherapy Development Research Center Co., Ltd., priority 2009, dated 2014)
